ChEMBL document CHEMBL5291721, “A preclinical secondary pharmacology resource illuminates target-adverse drug reaction associations of marketed drugs” (Nat Commun, 2023)

Columns and labels:
[1] = target: T1, 5-hydroxytryptamine receptor 1A (Homo sapiens, UniProt P08908)
T1 sequence (P08908 whole entry): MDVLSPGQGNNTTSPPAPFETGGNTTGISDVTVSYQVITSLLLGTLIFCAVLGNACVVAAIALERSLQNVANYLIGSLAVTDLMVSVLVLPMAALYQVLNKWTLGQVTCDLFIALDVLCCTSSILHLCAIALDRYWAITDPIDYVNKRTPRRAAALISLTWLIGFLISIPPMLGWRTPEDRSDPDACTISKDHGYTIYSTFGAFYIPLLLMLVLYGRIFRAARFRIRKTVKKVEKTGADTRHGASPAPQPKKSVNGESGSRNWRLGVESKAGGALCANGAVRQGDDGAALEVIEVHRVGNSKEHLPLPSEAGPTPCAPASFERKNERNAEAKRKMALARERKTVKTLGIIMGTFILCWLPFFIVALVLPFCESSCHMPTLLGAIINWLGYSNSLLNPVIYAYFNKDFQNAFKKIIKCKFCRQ

[2] = target: T2, Thromboxane A2 receptor (Homo sapiens, UniProt P21731); format: functional, cell-based
T2 sequence (P21731 whole entry): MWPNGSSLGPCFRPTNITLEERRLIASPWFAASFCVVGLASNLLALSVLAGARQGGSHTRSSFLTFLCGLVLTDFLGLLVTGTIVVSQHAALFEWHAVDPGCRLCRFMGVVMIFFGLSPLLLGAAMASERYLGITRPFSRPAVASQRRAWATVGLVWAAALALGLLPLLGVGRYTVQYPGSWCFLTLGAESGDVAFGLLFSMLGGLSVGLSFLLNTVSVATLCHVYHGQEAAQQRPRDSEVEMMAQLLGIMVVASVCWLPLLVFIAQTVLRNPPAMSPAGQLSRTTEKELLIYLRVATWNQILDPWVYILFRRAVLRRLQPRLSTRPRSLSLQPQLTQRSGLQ

[3] = target: T3, Adenosine receptor A3 (Homo sapiens, UniProt P0DMS8)
T3 sequence (P0DMS8 whole entry): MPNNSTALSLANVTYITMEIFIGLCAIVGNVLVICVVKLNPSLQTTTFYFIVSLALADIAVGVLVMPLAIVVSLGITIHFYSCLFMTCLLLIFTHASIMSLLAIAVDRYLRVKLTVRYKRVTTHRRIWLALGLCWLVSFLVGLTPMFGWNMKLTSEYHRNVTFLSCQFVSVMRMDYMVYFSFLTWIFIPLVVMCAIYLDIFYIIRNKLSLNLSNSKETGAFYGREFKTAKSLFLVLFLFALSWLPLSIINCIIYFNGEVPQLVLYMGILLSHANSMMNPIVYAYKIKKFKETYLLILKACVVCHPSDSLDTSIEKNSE

[4] = target: T4, Gastrin/cholecystokinin type B receptor (Homo sapiens, UniProt P32239)
T4 sequence (P32239 whole entry): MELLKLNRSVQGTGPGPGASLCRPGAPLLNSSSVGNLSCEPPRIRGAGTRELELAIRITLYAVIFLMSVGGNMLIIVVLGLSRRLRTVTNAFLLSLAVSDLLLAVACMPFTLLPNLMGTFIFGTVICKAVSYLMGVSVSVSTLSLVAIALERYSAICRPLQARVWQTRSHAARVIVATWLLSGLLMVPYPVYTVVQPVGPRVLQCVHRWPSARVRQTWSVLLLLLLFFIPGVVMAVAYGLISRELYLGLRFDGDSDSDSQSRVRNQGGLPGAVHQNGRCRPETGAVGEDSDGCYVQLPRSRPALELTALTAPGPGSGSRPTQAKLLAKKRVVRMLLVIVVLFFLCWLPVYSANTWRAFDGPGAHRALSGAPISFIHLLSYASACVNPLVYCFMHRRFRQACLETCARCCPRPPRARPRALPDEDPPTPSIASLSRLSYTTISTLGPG

[5] = target: T5, Glucocorticoid receptor (Homo sapiens, UniProt P04150)
T5 sequence (P04150 whole entry): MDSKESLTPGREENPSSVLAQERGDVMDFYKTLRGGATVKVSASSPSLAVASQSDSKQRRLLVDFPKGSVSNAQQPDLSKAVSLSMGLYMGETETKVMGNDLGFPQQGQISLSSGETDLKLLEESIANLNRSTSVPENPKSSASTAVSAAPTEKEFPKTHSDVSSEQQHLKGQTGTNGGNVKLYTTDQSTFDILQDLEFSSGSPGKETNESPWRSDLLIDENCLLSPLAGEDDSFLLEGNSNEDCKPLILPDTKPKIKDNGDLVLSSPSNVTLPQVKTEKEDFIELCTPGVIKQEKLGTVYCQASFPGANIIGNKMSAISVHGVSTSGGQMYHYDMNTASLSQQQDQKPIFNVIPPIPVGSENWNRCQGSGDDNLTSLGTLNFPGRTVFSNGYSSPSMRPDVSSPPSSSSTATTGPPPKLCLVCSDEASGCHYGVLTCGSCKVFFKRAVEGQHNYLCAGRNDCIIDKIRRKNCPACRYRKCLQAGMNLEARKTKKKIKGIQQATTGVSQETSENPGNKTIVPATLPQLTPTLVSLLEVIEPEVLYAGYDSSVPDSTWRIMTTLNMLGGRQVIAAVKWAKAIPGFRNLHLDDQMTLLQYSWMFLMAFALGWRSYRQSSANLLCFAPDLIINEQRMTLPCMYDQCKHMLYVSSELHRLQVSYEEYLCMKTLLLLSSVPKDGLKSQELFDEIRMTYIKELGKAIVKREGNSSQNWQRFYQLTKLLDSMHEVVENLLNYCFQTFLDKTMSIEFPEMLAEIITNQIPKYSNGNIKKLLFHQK

[6] = target: Vasopressin V1a receptor (Homo sapiens, UniProt P37288)
Chain of Vasopressin V1a receptor (P37288 whole entry): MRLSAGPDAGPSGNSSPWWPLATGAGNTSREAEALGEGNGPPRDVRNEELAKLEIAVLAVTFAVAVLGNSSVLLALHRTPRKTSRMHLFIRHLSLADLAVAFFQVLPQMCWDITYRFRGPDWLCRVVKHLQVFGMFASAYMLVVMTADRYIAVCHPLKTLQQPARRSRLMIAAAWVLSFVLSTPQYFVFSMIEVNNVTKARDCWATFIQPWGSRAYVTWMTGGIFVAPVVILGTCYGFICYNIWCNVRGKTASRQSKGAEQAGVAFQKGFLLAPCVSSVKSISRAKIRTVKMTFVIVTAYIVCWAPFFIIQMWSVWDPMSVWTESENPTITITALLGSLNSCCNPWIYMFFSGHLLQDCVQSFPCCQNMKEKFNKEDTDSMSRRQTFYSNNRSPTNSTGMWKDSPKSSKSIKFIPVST

[7] = target: Vasopressin V2 receptor (Homo sapiens, UniProt P30518)
Chain of Vasopressin V2 receptor (P30518 whole entry): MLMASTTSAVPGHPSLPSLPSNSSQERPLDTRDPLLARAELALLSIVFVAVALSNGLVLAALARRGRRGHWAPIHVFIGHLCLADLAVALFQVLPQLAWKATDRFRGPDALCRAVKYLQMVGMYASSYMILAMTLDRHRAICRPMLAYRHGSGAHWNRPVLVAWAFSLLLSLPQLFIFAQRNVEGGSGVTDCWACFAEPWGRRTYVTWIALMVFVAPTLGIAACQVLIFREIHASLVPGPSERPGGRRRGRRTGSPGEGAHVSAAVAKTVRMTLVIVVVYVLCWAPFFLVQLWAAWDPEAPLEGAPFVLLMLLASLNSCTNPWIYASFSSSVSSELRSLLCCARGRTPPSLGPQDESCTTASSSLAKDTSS
Also: assay procedure not described here.

Row | SMILES | AC50 [1] [µM] | AC50 [2] [µM] | AC50 [3] [µM] | AC50 [4] [µM] | AC50 [5] [µM] | AC50 [6] [µM] | AC50 [7] [µM]
1 | Cc1cc2c(cc1CC(=O)c1sccc1S(=O)(=O)Nc1onc(C)c1Cl)OCO2 [SITAXENTAN] | > 30 | > 10 |  |  |  |  | 
2 | Cc1cc(O)cc(C)c1Cl [CHLOROXYLENOL] | > 30 | 28.3 | > 30 |  |  |  | 
3 | C#C[C@]1(O)CC[C@H]2[C@@H]3CCC4=CC(=O)CC[C@@H]4[C@H]3CC[C@@]21CC [LEVONORGESTREL] | > 30 | > 30 | > 30 |  |  |  | 
4 | C(=N\NC1=NCCN1)/c1c2ccccc2c(/C=N/NC2=NCCN2)c2ccccc12 [BISANTRENE] | 1.65 | > 30 | 2.01 |  |  |  | 
5 | O=C1c2c(O)c(=O)ccn2N([C@@H]2c3ccccc3SCc3c2ccc(F)c3F)[C@@H]2COCCN12 [BALOXAVIR] | > 30 | > 30 | > 30 |  |  |  | 
6 | C[N+]1(C)[C@@H]2C[C@@H](OC(=O)[C@H](CO)c3ccccc3)C[C@H]1[C@@H]1O[C@@H]12 [METHSCOPOLAMINE] | > 30 | > 30 | > 30 |  |  |  | 
7 | CC1(C)O[C@@H]2C[C@H]3[C@@H]4C[C@H](F)C5=CC(=O)CC[C@]5(C)[C@H]4[C@@H](O)C[C@]3(C)[C@]2(C(=O)CO)O1 [FLURANDRENOLIDE] | > 30 | > 30 | > 30 |  |  |  | 
8 | COc1cc(Nc2c(C#N)cnc3cc(OCCCN4CCN(C)CC4)c(OC)cc23)c(Cl)cc1Cl [BOSUTINIB] | 14.2 | > 3 |  | > 30 | > 30 | 4.7 | 
9 | O=C(COc1ccc(Cl)cc1)N1CCN(Cc2ccc3c(c2)OCO3)CC1 [FIPEXIDE] | > 30 | 11.3 | > 30 |  |  |  | 
10 | O=C1c2ccccc2C(=O)C1C(=O)C(c1ccccc1)c1ccccc1 [DIPHENADIONE] | > 30 | 1.84 | 0.716 |  |  |  | 
11 | C[N+](C)(C)CCCCCCCCCC[N+](C)(C)C [DECAMETHONIUM] | > 30 | > 30 | > 30 |  |  |  | 
12 | CC(=O)Oc1c(C)cc(OCC(O)CNC(C)C)c(C)c1C (centres undefined) [METIPRANOLOL] | > 30 | > 30 | > 30 |  |  |  | 
13 | CC(N/C(=N\C#N)Nc1ccncc1)C(C)(C)C (centres undefined) [PINACIDIL ANHYDROUS] | > 30 | > 30 | > 30 |  |  |  | 
14 | O=C1CC[C@@]2(O)[C@H]3Cc4ccc(O)c5c4[C@@]2(CCN3CC2CC2)[C@H]1O5 [NALTREXONE] | > 30 | > 30 | > 30 |  |  |  | 
15 | CCC(=O)c1c(O)cc(O)cc1O [FLOPROPIONE] | > 30 | > 30 | > 30 |  |  |  | 
16 | O=C1[C@H](CC[C@H](O)c2ccc(F)cc2)[C@@H](c2ccc(O)cc2)N1c1ccc(F)cc1 [EZETIMIBE] | > 30 | 7.68 | 6.34 |  |  |  | 
17 | C#C[C@]1(O)CC[C@H]2[C@@H]3CCc4cc(O)ccc4[C@H]3CC[C@@]21C [ETHINYL ESTRADIOL] | > 30 | > 10 |  | > 30 | 0.12 | > 10 | > 30

Row | SMILES | AC50 [1] [µM] | AC50 [2] [µM] | AC50 [3] [µM] | AC50 [4] [µM] | AC50 [5] [µM] | AC50 [6] [µM] | AC50 [7] [µM]
18 | CCC(=O)O[C@H]1[C@H](O[C@@H]2[C@@H](C)[C@H](O[C@H]3C[C@@](C)(OC)[C@@H](O)[C@H](C)O3)[C@@H](C)C(=O)O[C@H](CC)[C@@](C)(O)[C@H](O)[C@@H](C)C(=O)[C@H](C)C[C@@]2(C)O)O[C@H](C)C[C@@H]1N(C)C [ERYTHROMYCIN PROPIONATE] | 15.1 | > 3 |  |  |  |  | 
19 | CO/N=C(\C(=O)N[C@@H]1C(=O)N2C(C(=O)[O-])=C(C[N+]3(C)CCCC3)CS[C@H]12)c1csc(N)n1 |  |  |  | > 30 | > 30 | > 300 | > 30
20 | CCOC(=O)[C@H](CCc1ccccc1)N[C@@H](C)C(=O)N1CCC[C@H]1C(=O)O |  |  |  | > 30 | > 30 | > 10 | > 30
21 | CCOC(=O)c1ccc(O)cc1 [ETHYLPARABEN] | > 30 | > 30 | > 30 |  |  |  | 
22 | Cc1c(-c2ccccc2)oc2c(C(=O)OCCN3CCCCC3)cccc2c1=O [FLAVOXATE] | 3.11 | > 30 | 5.29 |  |  |  | 
23 | OCCN1CCN(CCCN2c3ccccc3C=Cc3ccccc32)CC1 [OPIPRAMOL] | 9.25 | > 30 |  | > 30 | > 30 | > 30 | > 30
24 | CCCS(=O)(=O)Nc1ccc(F)c(C(=O)c2c[nH]c3ncc(-c4ccc(Cl)cc4)cc23)c1F [VEMURAFENIB] |  |  |  | > 30 | > 30 | > 30 | > 30
25 | CNC(=O)c1cc(Oc2ccc(NC(=O)Nc3ccc(Cl)c(C(F)(F)F)c3)cc2)ccn1 [SORAFENIB] |  |  |  | > 10 | > 30 | > 30 | > 30
26 | NC(N)=Nc1nc(CSCCC(N)=NS(N)(=O)=O)cs1 [FAMOTIDINE] |  |  |  | > 30 | > 30 | > 10 | > 30
27 | Sc1ncnc2nc[nH]c12 [MERCAPTOPURINE ANHYDROUS] | > 30 | > 30 | > 30 |  |  |  | 
28 | COC(=O)N[C@H](C(=O)N[C@@H](Cc1ccccc1)[C@@H](O)CN(Cc1ccc(-c2ccccn2)cc1)NC(=O)[C@@H](NC(=O)OC)C(C)(C)C)C(C)(C)C [ATAZANAVIR] |  |  |  | > 30 | > 30 | > 30 | > 30
29 | Cc1ccc(O)c2ncccc12 [TILIQUINOL] | > 30 | > 30 | > 30 |  |  |  | 
30 | COc1ccc2c(c1)C(=O)N(CCc1ccc(S(=O)(=O)NC(=O)NC3CCCCC3)cc1)C(=O)C2(C)C [GLIQUIDONE] |  |  |  | > 10 | > 30 | > 30 | > 30
31 | NC(=O)c1ncn([C@@H]2O[C@H](CO)[C@@H](O)[C@H]2O)c1O [MIZORIBINE] |  |  |  | > 30 | > 30 | > 30 | > 30
32 | COc1cc2c(cc1OC)C(=O)C(CC1CCN(Cc3ccccc3)CC1)C2 (centres undefined) [DONEPEZIL] |  | > 30 | > 30 | > 30 |  | > 30 | > 30
33 | O=C(NC[C@H]1CN(c2ccc(N3CCOCC3=O)cc2)C(=O)O1)c1ccc(Cl)s1 [RIVAROXABAN] | > 30 | > 3 |  |  |  |  | 
